Data on 6 compounds can be found in ChEMBL document CHEMBL1145498, “A systematic interaction map of validated kinase inhibitors with Ser/Thr kinases” (Proc Natl Acad Sci U S A, 2007).

Molecules are shown by their SMILES.

The target in experiment [1] is Calcium/calmodulin-dependent protein kinase type II subunit alpha (Homo sapiens) (UniProt Q9UQM7).
For experiment [2], the target named is Calcium/calmodulin-dependent protein kinase type II subunit beta (Homo sapiens) (UniProt Q13554).
Experiment [3] addresses Cyclin-dependent kinase 2 (Homo sapiens, UniProt P24941).
Experiment [4] has as its target Cyclin-dependent kinase 6 (Homo sapiens) (UniProt Q00534).
For experiment [5], the target named is Cyclin-dependent kinase-like 1 (Homo sapiens) (UniProt Q00532).
Experiment [6] has as its target Dual specificity protein kinase CLK2 (Homo sapiens) (UniProt P49760).
For experiment [7], the target named is Casein kinase I isoform gamma-1 (Homo sapiens) (UniProt Q9HCP0).
Sequence of Casein kinase I isoform gamma-1 (Homo sapiens) (Q9HCP0 whole entry, looked up, canonical isoform): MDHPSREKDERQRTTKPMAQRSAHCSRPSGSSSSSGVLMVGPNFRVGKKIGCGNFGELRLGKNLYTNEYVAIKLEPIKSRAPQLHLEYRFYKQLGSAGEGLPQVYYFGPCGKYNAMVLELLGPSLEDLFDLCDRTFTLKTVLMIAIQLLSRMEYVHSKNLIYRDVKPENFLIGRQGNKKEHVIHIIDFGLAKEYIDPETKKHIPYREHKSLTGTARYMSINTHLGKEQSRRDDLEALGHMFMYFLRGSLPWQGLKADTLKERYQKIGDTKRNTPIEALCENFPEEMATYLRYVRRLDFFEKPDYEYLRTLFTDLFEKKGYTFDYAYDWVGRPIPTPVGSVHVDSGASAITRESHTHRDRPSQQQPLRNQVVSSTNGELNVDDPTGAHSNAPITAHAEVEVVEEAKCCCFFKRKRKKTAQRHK
In experiment [8] the target is Casein kinase I isoform gamma-2 (Homo sapiens) (UniProt P78368).
For experiment [9], the target named is Glycogen synthase kinase-3 beta (Homo sapiens, UniProt P49841).
Experiment [10] has as its target T1, Mitogen-activated protein kinase kinase kinase 5 (Homo sapiens) (UniProt Q99683).
T1 sequence (whole entry): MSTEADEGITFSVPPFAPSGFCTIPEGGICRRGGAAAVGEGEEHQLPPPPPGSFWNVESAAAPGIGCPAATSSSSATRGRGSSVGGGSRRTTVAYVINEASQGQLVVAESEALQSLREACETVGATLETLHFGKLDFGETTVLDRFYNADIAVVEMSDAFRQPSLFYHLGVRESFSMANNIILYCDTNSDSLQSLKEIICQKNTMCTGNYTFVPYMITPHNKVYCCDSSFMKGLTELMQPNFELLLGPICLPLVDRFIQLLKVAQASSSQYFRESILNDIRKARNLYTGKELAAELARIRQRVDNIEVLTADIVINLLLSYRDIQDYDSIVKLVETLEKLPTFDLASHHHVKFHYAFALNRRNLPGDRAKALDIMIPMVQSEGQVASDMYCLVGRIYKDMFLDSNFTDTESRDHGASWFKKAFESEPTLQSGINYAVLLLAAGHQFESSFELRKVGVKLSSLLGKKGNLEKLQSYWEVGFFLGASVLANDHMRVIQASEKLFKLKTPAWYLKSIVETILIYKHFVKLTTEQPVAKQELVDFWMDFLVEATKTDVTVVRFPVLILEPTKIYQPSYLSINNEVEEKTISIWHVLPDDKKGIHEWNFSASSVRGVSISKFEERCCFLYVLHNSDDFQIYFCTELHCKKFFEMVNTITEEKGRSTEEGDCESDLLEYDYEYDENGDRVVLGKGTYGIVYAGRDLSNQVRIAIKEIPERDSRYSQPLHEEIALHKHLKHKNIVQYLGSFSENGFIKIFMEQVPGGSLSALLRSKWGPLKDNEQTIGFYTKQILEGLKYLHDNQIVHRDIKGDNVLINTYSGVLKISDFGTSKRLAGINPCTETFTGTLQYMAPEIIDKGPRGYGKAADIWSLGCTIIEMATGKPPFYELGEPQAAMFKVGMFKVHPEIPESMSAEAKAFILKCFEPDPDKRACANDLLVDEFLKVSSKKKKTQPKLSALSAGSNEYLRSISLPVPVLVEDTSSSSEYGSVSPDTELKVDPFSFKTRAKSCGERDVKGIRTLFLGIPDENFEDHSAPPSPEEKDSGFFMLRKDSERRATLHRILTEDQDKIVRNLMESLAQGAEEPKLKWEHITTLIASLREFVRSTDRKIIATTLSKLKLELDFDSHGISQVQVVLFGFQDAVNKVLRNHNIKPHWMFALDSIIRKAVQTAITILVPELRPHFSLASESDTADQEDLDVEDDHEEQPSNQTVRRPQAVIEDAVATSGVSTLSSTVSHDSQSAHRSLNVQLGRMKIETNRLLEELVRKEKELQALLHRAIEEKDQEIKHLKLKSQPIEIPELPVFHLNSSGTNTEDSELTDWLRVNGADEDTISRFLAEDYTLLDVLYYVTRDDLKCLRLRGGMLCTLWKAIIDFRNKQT

Experiment [11] deals with Mitogen-activated protein kinase 6 (Homo sapiens) (UniProt Q16659).
Experiment [12] addresses Serine/threonine-protein kinase 26 (Homo sapiens) (UniProt Q9P289).
In experiment [13] the target is Serine/threonine-protein kinase OSR1 (Homo sapiens) (UniProt O95747).
Sequence of Serine/threonine-protein kinase OSR1 (Homo sapiens) (O95747 2-527 limits assumed): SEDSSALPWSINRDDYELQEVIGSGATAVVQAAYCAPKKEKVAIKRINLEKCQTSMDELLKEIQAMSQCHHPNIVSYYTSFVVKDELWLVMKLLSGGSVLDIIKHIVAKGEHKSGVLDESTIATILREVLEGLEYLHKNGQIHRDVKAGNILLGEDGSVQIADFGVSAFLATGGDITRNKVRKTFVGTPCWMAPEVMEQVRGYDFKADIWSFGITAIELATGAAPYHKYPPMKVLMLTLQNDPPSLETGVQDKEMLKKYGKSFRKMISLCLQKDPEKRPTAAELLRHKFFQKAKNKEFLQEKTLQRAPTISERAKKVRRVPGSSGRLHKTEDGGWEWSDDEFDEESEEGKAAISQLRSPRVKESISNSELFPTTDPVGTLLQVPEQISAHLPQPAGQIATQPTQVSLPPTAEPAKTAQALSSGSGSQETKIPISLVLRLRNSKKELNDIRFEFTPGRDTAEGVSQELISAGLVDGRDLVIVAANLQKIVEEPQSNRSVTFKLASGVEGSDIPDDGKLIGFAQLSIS
Experiment [14] deals with Serine/threonine-protein kinase PAK 6 (Homo sapiens) (UniProt Q9NQU5).
Sequence of Serine/threonine-protein kinase PAK 6 (Homo sapiens) (Q9NQU5 whole entry, looked up): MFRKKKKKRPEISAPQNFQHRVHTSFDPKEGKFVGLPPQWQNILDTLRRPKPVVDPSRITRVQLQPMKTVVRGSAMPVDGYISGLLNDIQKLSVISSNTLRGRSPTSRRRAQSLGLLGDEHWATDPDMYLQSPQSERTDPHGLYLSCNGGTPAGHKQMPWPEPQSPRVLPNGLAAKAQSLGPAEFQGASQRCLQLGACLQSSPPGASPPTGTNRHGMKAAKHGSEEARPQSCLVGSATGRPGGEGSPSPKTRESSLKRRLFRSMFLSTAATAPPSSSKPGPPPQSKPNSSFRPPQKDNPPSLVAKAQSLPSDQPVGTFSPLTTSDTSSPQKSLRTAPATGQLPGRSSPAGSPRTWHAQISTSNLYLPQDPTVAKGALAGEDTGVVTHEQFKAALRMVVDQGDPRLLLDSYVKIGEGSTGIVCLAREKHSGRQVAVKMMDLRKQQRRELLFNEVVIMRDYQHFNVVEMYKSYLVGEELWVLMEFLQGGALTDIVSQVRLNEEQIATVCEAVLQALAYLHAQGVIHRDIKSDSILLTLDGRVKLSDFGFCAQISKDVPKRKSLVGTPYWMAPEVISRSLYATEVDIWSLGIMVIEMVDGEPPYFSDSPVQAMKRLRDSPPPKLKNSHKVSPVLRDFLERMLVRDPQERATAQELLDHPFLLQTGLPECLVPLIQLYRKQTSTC
The target in experiment [15] is Serine/threonine-protein kinase pim-1 (Homo sapiens) (UniProt P11309).
Experiment [16] deals with Serine/threonine-protein kinase pim-2 (Homo sapiens, UniProt Q9P1W9).
Sequence of Serine/threonine-protein kinase pim-2 (Q9P1W9 whole entry, looked up): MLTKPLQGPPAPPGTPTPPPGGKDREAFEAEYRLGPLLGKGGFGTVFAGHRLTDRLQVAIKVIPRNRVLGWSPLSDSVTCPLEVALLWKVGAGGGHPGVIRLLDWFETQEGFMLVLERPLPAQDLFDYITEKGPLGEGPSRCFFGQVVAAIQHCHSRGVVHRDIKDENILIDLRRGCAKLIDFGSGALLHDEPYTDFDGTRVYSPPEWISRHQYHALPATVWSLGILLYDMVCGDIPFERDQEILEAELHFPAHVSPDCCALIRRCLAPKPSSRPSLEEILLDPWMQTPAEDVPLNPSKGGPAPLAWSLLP
The target of experiment [17] is Ribosomal protein S6 kinase alpha-3 (Homo sapiens) (UniProt P51812).
Experiment [18] addresses Serine/threonine-protein kinase 16 (Homo sapiens) (UniProt O75716).
Experiment [19] addresses T2, Serine/threonine-protein kinase 17A (Homo sapiens) (UniProt Q9UEE5).
T2 sequence (whole entry): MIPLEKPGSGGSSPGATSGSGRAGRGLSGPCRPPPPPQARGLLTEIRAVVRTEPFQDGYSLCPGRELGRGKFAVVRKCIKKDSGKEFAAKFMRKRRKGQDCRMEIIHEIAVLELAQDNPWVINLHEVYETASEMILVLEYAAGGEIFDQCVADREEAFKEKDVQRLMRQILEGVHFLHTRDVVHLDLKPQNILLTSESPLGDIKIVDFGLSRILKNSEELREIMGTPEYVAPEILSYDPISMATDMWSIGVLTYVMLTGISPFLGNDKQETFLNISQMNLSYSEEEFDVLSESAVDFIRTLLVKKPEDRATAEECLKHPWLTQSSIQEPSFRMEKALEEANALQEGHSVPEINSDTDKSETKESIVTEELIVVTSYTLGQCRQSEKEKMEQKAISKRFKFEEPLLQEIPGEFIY

The target in experiment [20] is TRAF2 and NCK-interacting protein kinase (Homo sapiens) (UniProt Q9UKE5).
Experiment [21] has as its target Serine/threonine-protein kinase VRK2 (Homo sapiens) (UniProt Q86Y07).

Sequence of Serine/threonine-protein kinase VRK2 (Homo sapiens) (Q86Y07 whole entry): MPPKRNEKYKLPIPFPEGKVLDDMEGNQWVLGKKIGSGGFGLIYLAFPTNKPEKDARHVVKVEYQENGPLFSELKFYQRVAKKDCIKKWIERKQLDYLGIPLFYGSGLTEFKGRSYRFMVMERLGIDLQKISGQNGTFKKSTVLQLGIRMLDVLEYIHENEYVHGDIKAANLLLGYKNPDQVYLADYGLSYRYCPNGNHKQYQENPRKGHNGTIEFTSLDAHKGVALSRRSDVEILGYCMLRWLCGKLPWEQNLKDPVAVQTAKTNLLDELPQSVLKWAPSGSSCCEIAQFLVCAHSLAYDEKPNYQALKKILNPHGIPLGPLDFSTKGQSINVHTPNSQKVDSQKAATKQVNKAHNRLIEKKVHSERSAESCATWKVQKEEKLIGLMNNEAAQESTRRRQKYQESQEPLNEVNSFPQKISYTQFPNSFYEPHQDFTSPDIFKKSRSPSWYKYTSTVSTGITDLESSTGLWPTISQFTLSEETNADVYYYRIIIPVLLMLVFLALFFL
Sequence of Cyclin-dependent kinase 6 (Homo sapiens) (Q00534 whole entry): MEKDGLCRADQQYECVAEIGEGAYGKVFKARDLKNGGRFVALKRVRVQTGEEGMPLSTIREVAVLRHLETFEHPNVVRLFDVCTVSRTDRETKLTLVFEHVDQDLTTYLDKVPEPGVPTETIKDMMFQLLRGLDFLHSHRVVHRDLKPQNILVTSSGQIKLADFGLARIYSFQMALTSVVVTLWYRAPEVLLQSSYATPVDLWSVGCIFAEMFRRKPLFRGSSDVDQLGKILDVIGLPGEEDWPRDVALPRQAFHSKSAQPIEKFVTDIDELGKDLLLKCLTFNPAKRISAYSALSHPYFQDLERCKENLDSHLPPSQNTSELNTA
Sequence of Calcium/calmodulin-dependent protein kinase type II subunit beta (Homo sapiens) (Q13554 whole entry): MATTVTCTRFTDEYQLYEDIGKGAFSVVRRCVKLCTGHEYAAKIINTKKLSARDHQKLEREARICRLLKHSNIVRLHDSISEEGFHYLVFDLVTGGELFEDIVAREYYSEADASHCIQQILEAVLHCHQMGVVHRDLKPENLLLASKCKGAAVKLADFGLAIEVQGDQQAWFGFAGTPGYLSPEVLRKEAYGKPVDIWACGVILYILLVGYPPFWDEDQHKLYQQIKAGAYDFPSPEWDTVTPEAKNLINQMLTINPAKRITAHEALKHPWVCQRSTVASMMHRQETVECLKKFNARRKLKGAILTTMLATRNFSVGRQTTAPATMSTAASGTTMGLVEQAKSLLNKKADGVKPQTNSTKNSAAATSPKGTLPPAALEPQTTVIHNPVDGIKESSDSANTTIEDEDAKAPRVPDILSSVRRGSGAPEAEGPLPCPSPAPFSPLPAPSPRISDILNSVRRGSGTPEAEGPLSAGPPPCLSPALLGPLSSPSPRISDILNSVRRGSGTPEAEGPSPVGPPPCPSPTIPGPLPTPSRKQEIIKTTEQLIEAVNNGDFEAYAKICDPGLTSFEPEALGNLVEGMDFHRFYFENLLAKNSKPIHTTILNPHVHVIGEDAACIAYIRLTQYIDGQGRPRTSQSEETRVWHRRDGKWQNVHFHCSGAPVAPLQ
Sequence of Serine/threonine-protein kinase 26 (Homo sapiens) (Q9P289 2-416 limits assumed): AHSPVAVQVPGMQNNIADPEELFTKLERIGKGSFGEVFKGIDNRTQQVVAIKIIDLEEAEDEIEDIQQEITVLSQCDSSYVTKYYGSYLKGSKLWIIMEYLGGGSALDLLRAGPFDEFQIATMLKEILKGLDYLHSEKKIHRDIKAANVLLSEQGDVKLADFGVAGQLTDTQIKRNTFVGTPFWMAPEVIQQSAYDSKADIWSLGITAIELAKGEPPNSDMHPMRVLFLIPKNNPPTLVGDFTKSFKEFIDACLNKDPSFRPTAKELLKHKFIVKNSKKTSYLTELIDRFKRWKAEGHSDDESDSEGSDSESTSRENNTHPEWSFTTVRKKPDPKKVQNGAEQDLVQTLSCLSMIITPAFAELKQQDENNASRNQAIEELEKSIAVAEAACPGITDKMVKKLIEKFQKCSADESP
Sequence of Calcium/calmodulin-dependent protein kinase type II subunit alpha (Homo sapiens) (Q9UQM7 whole entry): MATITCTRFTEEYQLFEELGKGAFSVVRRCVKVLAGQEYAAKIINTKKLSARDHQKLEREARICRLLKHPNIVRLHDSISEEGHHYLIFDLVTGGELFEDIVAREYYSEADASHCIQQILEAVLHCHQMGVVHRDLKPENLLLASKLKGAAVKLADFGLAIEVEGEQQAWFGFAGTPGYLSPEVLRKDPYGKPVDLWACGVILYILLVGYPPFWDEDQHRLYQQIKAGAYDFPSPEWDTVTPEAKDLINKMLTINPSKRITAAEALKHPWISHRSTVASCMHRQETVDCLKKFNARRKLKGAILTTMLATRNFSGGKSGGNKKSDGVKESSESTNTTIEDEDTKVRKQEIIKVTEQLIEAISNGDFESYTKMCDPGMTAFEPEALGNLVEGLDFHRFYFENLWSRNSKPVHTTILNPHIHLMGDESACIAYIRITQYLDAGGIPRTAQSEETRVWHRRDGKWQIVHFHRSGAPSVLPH
Sequence of Dual specificity protein kinase CLK2 (Homo sapiens) (P49760 whole entry, looked up, canonical isoform): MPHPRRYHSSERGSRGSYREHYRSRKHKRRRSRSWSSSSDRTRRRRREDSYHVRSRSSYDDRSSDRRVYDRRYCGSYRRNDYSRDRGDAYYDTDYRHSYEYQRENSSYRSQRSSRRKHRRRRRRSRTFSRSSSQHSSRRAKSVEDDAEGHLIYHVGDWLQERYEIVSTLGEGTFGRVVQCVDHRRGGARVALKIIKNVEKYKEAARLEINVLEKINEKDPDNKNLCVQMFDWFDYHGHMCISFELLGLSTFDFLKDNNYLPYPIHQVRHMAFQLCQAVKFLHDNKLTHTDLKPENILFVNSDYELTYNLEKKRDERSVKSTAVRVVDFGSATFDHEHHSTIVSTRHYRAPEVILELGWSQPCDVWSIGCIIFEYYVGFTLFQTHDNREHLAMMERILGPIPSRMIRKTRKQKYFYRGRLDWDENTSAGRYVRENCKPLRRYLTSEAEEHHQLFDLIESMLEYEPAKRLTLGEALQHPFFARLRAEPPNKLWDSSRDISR

A word on the ΔTm: it is the change in melting temperature against a reference sample. Regarding `CN(C)c1ncnc2nc[nH]c12` [DIMETHYLADENINE], the ΔTm in experiment [1] stood at 1.7 °C; in experiment [2], 0 °C; in [3], 0.3 °C; in experiment [4], 0.1 °C; in experiment [5] it was 0 °C; in [6] it was 0.9 °C. The ΔTm was -0.1 °C in experiment [7]; 0.5 °C in [8]; 0.7 °C in experiment [9]; 2.8 °C in [10]; -0.1 °C in [11]; 0.1 °C in experiment [12]. The ΔTm in experiment [13] was 1.1 °C; in [14] it was -0.3 °C; in experiment [15], 0 °C; in experiment [16] it was 0.3 °C; in [17] it was 0.8 °C; in experiment [18], 0.5 °C. The ΔTm stood at 1.5 °C in experiment [19], 0 °C in [20] and 0 °C in experiment [21].

`Cc1cc(Nc2nc(-c3ccccc3)nc3ccccc23)n[nH]1`: the shift in melting temperature (ΔTm) in experiment [1] is 1.4 °C; in experiment [2] it was 0.6 °C; in experiment [3], 3 °C; in experiment [4] it was 1.9 °C; in experiment [5], 1.5 °C; in [6], 2.8 °C. Further, the ΔTm stood at 3.3 °C in experiment [7]; 3.3 °C in experiment [8]; 8.6 °C in [9]; 0.9 °C in experiment [10]; 0.2 °C in experiment [11]; 3.3 °C in experiment [12]. Also, the shift in melting temperature (ΔTm) in experiment [13] was 2.9 °C; in experiment [14] it was 5.4 °C; in [15], 1.7 °C; in [16], 0.7 °C; in experiment [17], 6.4 °C; in experiment [18], 5.6 °C. The ΔTm in experiment [19] was 2.2 °C; in experiment [20], -1 °C; in [21], 0.4 °C.

As to `Cc1ccc(NC(=O)c2cccc(N(C)C)c2)cc1NC(=O)c1ccc(O)cc1`, the ΔTm in experiment [1] is 0.1 °C; in experiment [2], 0.4 °C; in [3], 0.3 °C; in [4], -0.4 °C; in experiment [5], -0.4 °C; in experiment [6] it was 0.2 °C. Further, the ΔTm in [7] was -0.1 °C; in experiment [8], 0.2 °C; in [9], 0 °C; in experiment [10] it was -0.4 °C; in experiment [11] it was 0.4 °C; in [12], 0.7 °C. Also, the thermal shift (ΔTm) is 2 °C in experiment [13]; 0.6 °C in [14]; -0.3 °C in experiment [15]; 0 °C in experiment [16]; -0.1 °C in experiment [17]; 0.5 °C in experiment [18]. For the same compound, the thermal shift (ΔTm) worked out at 0.6 °C in [19], 0.1 °C in experiment [20] and 0.2 °C in [21].

Regarding `COc1cc(C[C@H]2C(=O)OC[C@@H]2Cc2ccc(OC)c(OC)c2)ccc1O` [ARCTIGENIN], the ΔTm in experiment [1] is 0.1 °C; in experiment [2], 0.6 °C; in experiment [3] it was 0.6 °C; in experiment [4] it was 0.4 °C; in [5] it was -0.1 °C; in experiment [6], -0.1 °C. For the same compound, the thermal shift (ΔTm) was 0 °C in experiment [7]; 0.1 °C in experiment [8]; -0.2 °C in experiment [9]; 0.2 °C in [10]; 0.2 °C in experiment [11]; -0.3 °C in [12]. Further, the ΔTm in experiment [13] is -0.1 °C; in experiment [14], 0.1 °C; in experiment [15], -0.3 °C; in experiment [16], 0 °C; in experiment [17], -0.1 °C; in experiment [18] it was 0 °C. Further, the values for the thermal shift (ΔTm) in experiment [19], in experiment [20] and in experiment [21] were 1.4 °C, -0.2 °C and 0.5 °C, respectively.

As for `CC(C)n1cnc2/c(=N/c3cccc(Cl)c3)nc(NCCO)[nH]c21`, the ΔTm is 0.7 °C in experiment [1]; 0.4 °C in experiment [2]; 1.6 °C in experiment [3]; 0 °C in experiment [4]; -0.1 °C in experiment [5]; 4.5 °C in experiment [6]. Also, the thermal shift (ΔTm) was found to be 6.1 °C in [7]; 4.5 °C in [8]; 0.8 °C in experiment [9]; 0.4 °C in experiment [10]; 0.2 °C in experiment [11]; 2.1 °C in experiment [12]. The ΔTm in experiment [13] is 1.3 °C; in [14] it was 3.8 °C; in experiment [15], -0.3 °C; in experiment [16] it was 0.6 °C; in [17], 2.1 °C; in experiment [18], 2.6 °C. In addition, the figures for the ΔTm in experiment [19], in experiment [20] and in [21] were 1.4 °C, 3.1 °C and 2.5 °C, respectively.

On to `CCCCc1c(-c2ccc(O)cc2)[nH]c2nccnc12` [ALOISINE A], for which the ΔTm came to 0.1 °C in experiment [1]; 0.5 °C in experiment [2]; 4.7 °C in [3]; 1.3 °C in experiment [4]; 0.1 °C in experiment [5]; 1.9 °C in [6]. The ΔTm in [7] was 3 °C; in experiment [8], 2.2 °C; in experiment [9], 8.3 °C; in experiment [10], 0.4 °C; in experiment [11] it was 3 °C; in experiment [12], 1.1 °C. Moreover, the shift in melting temperature (ΔTm) stood at 1.6 °C in experiment [13]; 0.5 °C in experiment [14]; 1.7 °C in experiment [15]; 4.5 °C in [16]; 1.9 °C in experiment [17]; 2.6 °C in experiment [18]. For the same compound, the ΔTm in experiment [19] turned out to be 2.9 °C; in [20], 0 °C; in experiment [21] it was 4.2 °C.
